In ChEMBL document CHEMBL4342432, “Hydroxyl substituted benzoic acid/cinnamic acid derivatives: Tyrosinase inhibitory kinetics, anti-melanogenic activity and molecular docking studies” (Bioorg Med Chem Lett, 2020):
The source made the active and inactive calls. The calls are words filed in the database; no cut-off is given here.

Experiments:
[1] = molecular target: T1, Tyrosinase (Agaricus bisporus, UniProt O42713); test: Inhibition of mushroom tyrosinase assessed as reduction in dopachrome formation using L-DOPA as substrate preincubated for 10 mins followed by substrate addition and further incubated for 20 mins by microplate reader assay
T1 sequence (O42713 whole entry): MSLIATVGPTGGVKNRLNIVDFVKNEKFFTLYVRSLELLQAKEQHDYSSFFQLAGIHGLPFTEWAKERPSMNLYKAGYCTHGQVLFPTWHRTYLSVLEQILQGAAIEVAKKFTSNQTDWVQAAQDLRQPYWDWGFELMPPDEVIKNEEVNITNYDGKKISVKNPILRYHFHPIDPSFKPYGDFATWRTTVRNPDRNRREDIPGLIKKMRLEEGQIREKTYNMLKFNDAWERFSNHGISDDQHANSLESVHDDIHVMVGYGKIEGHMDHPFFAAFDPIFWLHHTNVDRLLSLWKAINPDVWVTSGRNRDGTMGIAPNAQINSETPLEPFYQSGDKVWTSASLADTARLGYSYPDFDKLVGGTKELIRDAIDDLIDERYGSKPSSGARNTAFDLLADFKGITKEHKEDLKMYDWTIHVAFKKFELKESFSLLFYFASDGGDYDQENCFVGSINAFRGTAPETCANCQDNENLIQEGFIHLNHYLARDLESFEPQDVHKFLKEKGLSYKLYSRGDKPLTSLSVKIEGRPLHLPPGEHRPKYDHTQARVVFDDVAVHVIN

[2] = molecular target: T1, Tyrosinase
[3] = Cytotoxicity against mouse B16F10 cells assessed as cell viability at 40 ug/ml incubated for 24 hrs by MTT assay relative to control; type: cell-based, B16-F10; settings: read-out: Activity
[4] = Cytotoxicity against mouse B16F10 cells assessed as cell viability at 30 ug/ml incubated for 24 hrs by MTT assay relative to control; type: cell-based, B16-F10; settings: read-out: Activity
[5] = test system: B16-F10; test: Cytotoxicity against mouse B16F10 cells assessed as effect on cell morphology at 20 to 60 ug/ml incubated for 24 hrs by fluorescent inverted microscopy analysis; type: cell-based; settings: b16-f10, 24 h
[6] = molecular target: T2, Tyrosinase (Mus musculus) (UniProt P11344); test: Inhibition of tyrosinase in mouse B16F10 cells assessed as alpha-MSH-stimulated melanogenesis measured as melanin content at 25 to 30 ug/ml measured after 24 hrs in presence of alpha-MSH by microplate reader analysis; type: cell-based
T2 sequence (whole entry): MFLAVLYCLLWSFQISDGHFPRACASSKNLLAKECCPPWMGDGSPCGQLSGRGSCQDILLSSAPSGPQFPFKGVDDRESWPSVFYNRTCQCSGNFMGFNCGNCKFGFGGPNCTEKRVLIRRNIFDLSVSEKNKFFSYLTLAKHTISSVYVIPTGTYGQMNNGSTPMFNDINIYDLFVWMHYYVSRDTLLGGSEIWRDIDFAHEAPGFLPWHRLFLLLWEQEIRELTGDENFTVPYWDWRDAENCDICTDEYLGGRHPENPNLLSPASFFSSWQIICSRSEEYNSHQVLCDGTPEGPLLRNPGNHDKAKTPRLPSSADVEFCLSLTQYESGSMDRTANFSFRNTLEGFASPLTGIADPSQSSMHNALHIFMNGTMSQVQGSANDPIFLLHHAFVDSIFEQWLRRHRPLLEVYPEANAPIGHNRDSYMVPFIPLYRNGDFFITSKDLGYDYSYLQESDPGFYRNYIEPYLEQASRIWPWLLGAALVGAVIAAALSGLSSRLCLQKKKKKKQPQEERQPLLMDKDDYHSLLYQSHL

[7] = molecular target: T2, Tyrosinase (Mus musculus); test: Inhibition of tyrosinase in mouse B16F10 cells assessed as transformation of L-DOPA into dopachrome measured after 24 hrs by microplate reader analysis; type: cell-based

SMILES	IC50 [1] [µM]	also measured
COc1cccc(OC(=O)COC(=O)c2ccc(O)cc2O)c1	23.8	Ki [2]: 130 µM
COc1cccc(OC(=O)COC(=O)c2ccc(O)c(O)c2)c1	299	–
COc1cccc(OC(=O)COC(=O)/C=C/c2ccccc2)c1	39.4	–
COc1cccc(OC(=O)COC(=O)/C=C/c2ccccc2O)c1	173	–
COc1cccc(OC(=O)COC(=O)c2ccc(O)cc2)c1	338	–
O=C(/C=C/c1ccc(O)cc1)OCC(=O)Oc1ccc2ccc(=O)oc2c1	124	–
COc1cccc(OC(=O)COC(=O)/C=C/c2ccc(O)cc2)c1	5.7	viability at 24 h, 40 ug/ml [3]: > 95%; viability at 24 h, 30 ug/ml [4]: > 99%; Activity [5]: Non-Toxic; inhibition [6]: Active; inhibition [7]: Dose-dependent effect; Ki [2]: 11 µM
COc1cccc(OC(=O)COC(=O)c2cccc(O)c2)c1	315	–
COc1cccc(OC(=O)COC(=O)c2cc(O)cc(O)c2)c1	193	–
